Assay results reported in patent US20120058133A1, “INHIBITION OF TRNA SYNTHETASES AND THERAPEUTIC APPLICATIONS THEREOF” (President and Fellows of Harvard College, priority 2009, published 2012).
Entries after “also recorded” stand apart in the source; their conditions may differ.

Columns and labels:
[1] = test system: primary human memory T cells (CD4+ CD45RO+); test: IL-17 and IFNγ expression by human memory T cells co-cultured with CD14+ monocytes; type: cell-based; settings: 100 nM HF, 6 days
Description: FIG. 2F is a set of FACS analyses of purified primary human memory T cells (CD4^+ CD45RO^+) activated in co-culture with CD14^+ monocytes and treated with DMSO, 100 nM HF or 100 nM MAZ1310. T cells were expanded for 6 days and intracellular cytokine expression was determined following restimulation with PMA plus ionomycin.
Primary murine T and B cells were purified by cell sorting. CD4^+ CD25^− T cells were positively selected using CD4 dynabeads and detachabeads (Dynal—Oslo, Norway) per manufacturers instructions followed by nTreg depletion using a CD25 microbead kit (Miltenyi biotech—Auburn, Calif.). Naïve (CD4^+ CD62Lhi CD44lo Foxp3gfp- or CD4^+ CD62Lhi CD44lo CD25^−) T cells were purified from Foxp3gfp or Foxp3ko mice, respectively, by FACS sorting. CD8^+ T cells or B cells were isolated from CD4^− fractions using CD8 negative isolation kit (Dynal) or CD43 negative isolation kit (Miltenyi biotech), respectively. Resting human CD4^+ T cells were isolated from PBMC of healthy human donors using Dynal CD4 Positive Isolation Kit (Invitrogen—Carlsbad, Calif.) as previously described (Sundrud et al., Blood 106:3440, 2005). CD4^+ cells were further purified to obtain memory T cells by staining with PE-conjugated anti-human CD45RO-PE antibodies (BD Biosciences), and sorting on a FACSAria cytometer (BD Biosciences). Following purification, cells were greater than 99% CD4^+ CD45RO^+. […]

TGFβ signaling = settings: literature reports; cited from earlier work
EAE and CIA = settings: mouse, in vivo; cited from earlier work
[2] = test system: murine CD4+ CD25− T cells, CD8+ T cells, B cells; settings: high concentrations; PCT/US08/09774; cited from earlier work
[3] = test system: adjuvant-driven EAE in wild-type B6 mice; test: Adjuvant-driven EAE (MOG33-55 immunization); type: in vivo, mouse
Excerpt: The ability of systemic HF treatment to block IL-17 expression and associated autoimmune inflammation in vivo was examined using two distinct models of experimental autoimmune encephalomyelitis (EAE). […] The second model, a passive model of EAE induction, is initiated by the transfer of myelin proteolipid protein (PLP)-reactive T cells into lymphopenic hosts.
Adjuvant-driven EAE was induced in 8 week-old wild-type B6 mice purchased from Charles River laboratories (Kingston, N.Y.) by subcutaneous injection of […] peptide emulsified in Incomplete Freund's Adjuvant (IFA) plus 5 mg/ml heat-killed M. tuburculosis (BD Biosciences) in both dorsal flanks as described in Veldhoen et al. (Nat. Immunol. 7(11):1151-1156, 2006).
Mice were injected daily with HF (2 μg/mouse) or vehicle control (DMSO) i.p. Clinical signs of EAE were assessed according to the following score: 0, no signs of disease; 1, flaccid tail; 2, weak gait/hind limb paresis; 3, hind limb paralysis; 4, tetraplegia; 5, moribund. Cytokine production during EAE was determined either in peripheral T cells isolated from spleen or lymph nodes of mice prior to disease onset (day 6-10) or in mononuclear cells isolated from the brain and spinal cords of mice with severe disease (clinical score ≧2) between days 15-20. Briefly, splenocytes were stained for intracellular cytokines following erythrocyte lysis with ammonium chloride buffer. T cells were isolated from brain and spinal cords of mice with active EAE following perfusion with cold PBS. Minced CNS tissue was digested with liberase C1 (0.33 mg/ml, Roche Diagnostics) or collagenase D (10 mg/ml, Roche Diagnostics) at 37° C. for 30-45 minutes. Cell suspensions were passed through 70 μm cell strainers (VWR) and fractionated by 70%/30% Percoll gradient centrifugation. Mononuclear cells were collected from the interphase, washed and used for intracellular cytokine analysis.

[4] = 2 μg HF daily, ˜0.1 mg/kg, i.p.

O=C(CC1NCCCC1O)Cn1cnc2cc(Br)c(Cl)cc2c1=O (racemic) [HF, halofuginone]
IFNγ expression in human T cells [1]: essentially unaffected
percentage of human T cells expressing IL-17 and amount of IL-17 produced [1]: greatly reduced
concentration at which HF can attenuate TGFβ signaling (TGFβ signaling): > 50 nM
activity in EAE and CIA models (EAE and CIA): active in these models
concentrations generally inhibiting CD4+ T cell, CD8+ T cell, and B220+ B cell activation [2]: 20 to 40 nM
CD4+ T cell infiltrates into the CNS ([3]; 2 μg HF daily i.p.): overall reduction
IFNγ expression in the same T cell populations ([3]; 2 μg HF daily i.p.): did not affect IFNγ expression; also recorded: had no effect on the number of IFNγ T-cells
T cell-derived IL-17 expression in lymph nodes and CNS tissue ([3]; 2 μg HF daily i.p.): reduction; also recorded: selectively reduced the number of IL-17 expressing T cells
frequency of disease onset [3, 4]: significantly reduced
severity of adjuvant-driven EAE disease [3, 4]: significantly reduced
clinical score of mice analysed ([3]; 17 days after immunization with MOG): 0
clinical score of mice analysed ([3]; day 18): 0
